# Source: patent publication US20210186905A1, “ENHANCING T-CELL FUNCTION AND TREATING A T-CELL DYSFUNCTIONAL DISORDER WITH A COMBINATION OF AN LSD INHIBITOR AND A PD-1 BINDING ANTAGONIST” (EpiAxis Therapeutic Pty Ltd, priority 2017, published 2021)
# Structures can show the parent of a compound that is named as a salt.
# System: T-cell activation and exhaustion genes
# Assay: Nanostring transcript analysis of CD8+ T-cells from 4T1 metastatic mouse model
# Type: in vivo
# Description: FIG. 5 is a graphical representation showing that dual epigenetic-immunotherapy re-educates and re-programs the T-cell repertoire. A. Cells stimulated with PMA/ionomycin for 4 hours in the presence of Brefeldin A. Cells were surfaced stained with CD45, CD3, CD4, CD8, CD44, CD62L (for naïve, effector and central memory), CD25 and FoxP3 (for Tregs) and analyzed via Flow cytometry. A Mann-Whitney non-parametric t-test was used to compare control vs other groups (*p<0.05, n=2-5). […] Representative images for each dataset are shown. TNFI values for EOMES, TBET and Ki67 measured using Image) to select the nucleus minus background. Graphs represent the % change of expression relative to control group for CD8^+ T-cells. (n>20 individual cells, Group A=Control, Group C: PD1 (10 mg/kg), Group D: Phenelzine (40 mg/kg), Group F: PD1+Phenelzine). C. Cells stimulated with PMA/ionomycin for 4 hours in the presence of Brefeldin A. Cell were surfaced stained with CD45, CD3, CD4, CD8 and intracellular staining of IFN-γ, IL-2 and TNF-α in the presence of Brefeldin A and analyzed via flow cytometry. A Mann-Whitney non-parametric t-test was used to compare control vs other groups (*p<0.05, **p<0.008; n=2-5). […] Representative images for each dataset are shown. TNFI values for TNFα and IFNγ measured using ImageJ to select the nucleus minus background. […]
smiles,measurement,value
"NNCCc1ccccc1 (racemic) [phenelzine sulfate, (±)-2-phenylethylhydrazine]",exhaustive signature genes such as CTLA4 and LAG3,inhibited
